Laboratory results reported in patent US9073926B2, “Heterocyclic compounds containing a pyrrolopyridine or benzimidazole core” (Boehringer Ingelheim International GmbH, priority 2009, dated 2015).

Biological target: Human RSK2 (Homo sapiens (Human), UniProt P51812)
Experiment: Human RSK2 Assay (Kinase Glo Plus, residual ATP)
Assay type: biochemical
Conditions: 0.75 nM His-RSK2, 0.75 μM ATP, 1.0 μM S6 Kinase/RSK Substrate Peptide 1
Experimental: Experimental Method A: Human RSK2 Assay
Compounds are assessed for their ability to inhibit the phosphorylation of a substrate peptide by RSK2.
Human RSK2 protein, purchased from Invitrogen, is used to measure kinase activity utilizing Kinase Glo Plus (Promega) a homogeneous assay technology, which uses a luciferin-luciferase based ATP detection reagent to quantify residual ATP. The assay is performed using 0.75 nM His-RSK2, 0.75 μM ATP and 1.0 μM S6 Kinase/RSK Substrate Peptide 1 (Upstate, catalog #12-124), in assay buffer consisting of 25 mM HEPES, pH 7.5, 10 mM MgCl2, 5 mM MnCl2, 50 mM KCl, 0.2% BSA, 0.01% CHAPS, 100 μM Na3VO4, 0.5 mM DTT, and 1% DMSO. Solutions of test compounds at various concentrations are prepared by 1:3 fold serial dilution of a 1 mM solution of compound in DMSO. The DMSO solutions are further diluted with assay buffer to a final concentration of DMSO of 5%.
The assay is performed in a 384 well, white, non-binding plate (Corning, catalogue #3574). Solutions of test compounds (10 μL) are transferred to a dry assay plate, followed by addition of 20 μL kinase and 20 μL ATP+Substrate Peptide 1 described above. The kinase reaction mixture is incubated for 90 minutes at 28° C. followed by addition of 30 μL of ATP detection reagent for 15 minutes at room temperature. The relative light unit (RLU) signal is measured on a LJL Analyst (Molecular Devices) in luminescence mode using 384 aperture. The RLU signals were converted to percent of control (POC) values using the formula: POC=100*(BCTRL−Signal)/(BCTRL−PCTRL), where Signal is the test well RLU signal, BCTRL is the average of background (negative control), which consists of ATP+peptide and compound buffer, well signals on the plate, and PCTRL is the average of positive control, which consists of kinase, ATP+peptide, and compound buffer, well signals on the plate. For concentration-responsive compounds, POC as a function of test compound concentration are fitted to a 4-parameter logistic equation of the form: Y=A+(B−A)/[1+(x/C)^D], where A, B, C, and D are fitted parameters (parameter B is fixed at zero POC), and x and y are the independent and dependent variables, respectively. The IC50 (50% inhibitory concentration) is determined as the inflection point parameter, C. Experimental Method B: Human RSK2 Trans-Reporter Assay

Human RSK2, sequence (P51812 whole entry): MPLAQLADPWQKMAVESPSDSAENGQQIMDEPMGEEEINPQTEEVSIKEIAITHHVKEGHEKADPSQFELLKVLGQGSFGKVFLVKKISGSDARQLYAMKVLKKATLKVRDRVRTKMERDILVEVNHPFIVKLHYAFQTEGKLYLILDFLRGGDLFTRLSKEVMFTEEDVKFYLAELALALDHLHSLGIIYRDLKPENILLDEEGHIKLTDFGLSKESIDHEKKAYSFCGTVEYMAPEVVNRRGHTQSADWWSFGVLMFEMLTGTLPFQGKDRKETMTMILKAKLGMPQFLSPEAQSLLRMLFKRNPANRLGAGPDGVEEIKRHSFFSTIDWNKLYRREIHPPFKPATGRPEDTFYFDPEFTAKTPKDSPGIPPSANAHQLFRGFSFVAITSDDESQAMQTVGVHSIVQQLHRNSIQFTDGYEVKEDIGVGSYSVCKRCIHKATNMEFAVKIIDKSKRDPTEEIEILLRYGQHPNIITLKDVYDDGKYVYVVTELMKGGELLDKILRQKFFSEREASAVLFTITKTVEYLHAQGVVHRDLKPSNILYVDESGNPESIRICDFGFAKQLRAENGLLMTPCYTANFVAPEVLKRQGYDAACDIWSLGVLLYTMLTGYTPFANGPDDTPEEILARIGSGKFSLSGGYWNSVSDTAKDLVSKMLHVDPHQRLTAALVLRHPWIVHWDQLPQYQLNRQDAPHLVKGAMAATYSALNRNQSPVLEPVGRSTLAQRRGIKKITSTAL

SMILES | IC50 [nM]
CC(C)(C)n1cc(NC(=O)c2ccc3cc4n(c3n2)CCCNC4=O)cn1 [Example 44, N-(1-tert-butyl-1H-pyrazol-4-yl)-6-oxo-7,8,9,10-tetrahydro-6H-pyrido[3′,2′:4,5]pyrrolo[1,2-a][1,4]diazepine-2-carboxamide] | 9.7
CC1(C)CNC(=O)c2cc3ccc(C(=O)Nc4cnn(C(C)(C)C)c4)nc3n2C1 [Example 45, N-(1-tert-butyl-1H-pyrazol-4-yl)-9,9-dimethyl-6-oxo-7,8,9,10-tetrahydro-6H-pyrido[3′,2′:4,5]pyrrolo[1,2-a][1,4]diazepine-2-carboxamide] | 50
CC1CCNC(=O)c2cc3ccc(C(=O)Nc4cnn(Cc5ccccc5)c4)nc3n21 (centres unmarked) [Example 46, N-(1-benzyl-1H-pyrazol-4-yl)-10-methyl-6-oxo-7,8,9,10-tetrahydro-6H-pyrido[3′,2′:4,5]pyrrolo[1,2-a][1,4]diazepine-2-carboxamide] | 0.39
O=C(Nc1cnn(Cc2ccccc2)c1)c1ccc2cc3n(c2n1)CCCNC3=O [Example 47, N-(1-benzyl-1H-pyrazol-4-yl)-6-oxo-7,8,9,10-tetrahydro-6H-pyrido[3′,2′:4,5]pyrrolo[1,2-a][1,4]diazepine-2-carboxamide] | 3.8
CC1(C)CNC(=O)c2cc3ccc(C(=O)Nc4cnn(Cc5ccccc5)c4)nc3n2C1 [Example 48, N-(1-benzyl-1H-pyrazol-4-yl)-9,9-dimethyl-6-oxo-7,8,9,10-tetrahydro-6H-pyrido[3′,2′:4,5]pyrrolo[1,2-a][1,4]diazepine-2-carboxamide] | 12
O=C(Nc1nc2cc(Cl)cc(CN3CCOCC3)c2[nH]1)c1ccc2cc3n(c2n1)CCCNC3=O [Example 49, N-[5-chloro-7-(morpholin-4-ylmethyl)-1H-benzimidazol-2-yl]-6-oxo-7,8,9,10-tetrahydro-6H-pyrido[3′,2′:4,5]pyrrolo[1,2-a][1,4]diazepine-2-carboxamide] | 6.7
CC1(C)CNC(=O)c2cc3ccc(C(=O)Nc4nc5cc(Cl)ccc5[nH]4)nc3n2C1 [Example 50, N-(5-chloro-1H-benzimidazol-2-yl)-9,9-dimethyl-6-oxo-7,8,9,10-tetrahydro-6H-pyrido[3′,2′:4,5]pyrrolo[1,2-a][1,4]diazepine-2-carboxamide] | 55
Cn1c(NC(=O)c2ccc3cc4n(c3n2)CCCNC4=O)nc2ccccc21 [Example 51, N-(1-methyl-1H-benzimidazol-2-yl)-6-oxo-7,8,9,10-tetrahydro-6H-pyrido[3′,2′:4,5]pyrrolo[1,2-a][1,4]diazepine-2-carboxamide] | 365
Cn1c(NC(=O)c2ccc3cc4n(c3n2)CC(C)(C)CNC4=O)nc2ccccc21 [Example 52, 9,9-dimethyl-N-(1-methyl-1H-benzimidazol-2-yl)-6-oxo-7,8,9,10-tetrahydro-6H-pyrido[3′,2′:4,5]pyrrolo[1,2-a][1,4]diazepine-2-carboxamide] | 2500
CC(C)n1c(NC(=O)c2ccc3cc4n(c3n2)CCCNC4=O)nc2ccccc21 [Example 53, 6-oxo-N-[1-(propan-2-yl)-1H-benzimidazol-2-yl]-7,8,9,10-tetrahydro-6H-pyrido[3′,2′:4,5]pyrrolo[1,2-a][1,4]diazepine-2-carboxamide] | 630
CC(C)n1c(NC(=O)c2ccc3cc4n(c3n2)CC(C)(C)CNC4=O)nc2ccccc21 [Example 54, 9,9-dimethyl-6-oxo-N-[1-(propan-2-yl)-1H-benzimidazol-2-yl]-7,8,9,10-tetrahydro-6H-pyrido[3′,2′:4,5]pyrrolo[1,2-a][1,4]diazepine-2-carboxamide] | 1300
CCn1c(NC(=O)c2ccc3cc4n(c3n2)CCCNC4=O)nc2ccccc21 [Example 55, N-(1-ethyl-1H-benzimidazol-2-yl)-6-oxo-7,8,9,10-tetrahydro-6H-pyrido[3′,2′:4,5]pyrrolo[1,2-a][1,4]diazepine-2-carboxamide] | 140
CCn1c(NC(=O)c2ccc3cc4n(c3n2)CC(C)(C)CNC4=O)nc2ccccc21 [Example 56, N-(1-ethyl-1H-benzimidazol-2-yl)-9,9-dimethyl-6-oxo-7,8,9,10-tetrahydro-6H-pyrido[3′,2′:4,5]pyrrolo[1,2-a][1,4]diazepine-2-carboxamide] | 195
CN(C)CCCn1c(NC(=O)c2ccc3cc4n(c3n2)CCCNC4=O)nc2ccccc21 [Example 57, N-{1-[3-(dimethylamino)propyl]-1H-benzimidazol-2-yl}-6-oxo-7,8,9,10-tetrahydro-6H-pyrido[3′,2′:4,5]pyrrolo[1,2-a][1,4]diazepine-2-carboxamide] | 245
CN(C)CCCn1c(NC(=O)c2ccc3cc4n(c3n2)CC(C)(C)CNC4=O)nc2ccccc21 [Example 58, N-{1-[3-(dimethylamino)propyl]-1H-benzimidazol-2-yl}-9,9-dimethyl-6-oxo-7,8,9,10-tetrahydro-6H-pyrido[3′,2′:4,5]pyrrolo[1,2-a][1,4]diazepine-2-carboxamide] | 2300
C[C@@H]1CNC(=O)c2cc3ccc(C(=O)Nc4cnn(Cc5ccccc5)c4)nc3n21 [Example 59, (9R)-N-(1-benzyl-1H-pyrazol-4-yl)-9-methyl-6-oxo-6,7,8,9-tetrahydropyrido[3′,2′:4,5]pyrrolo[1,2-a]pyrazine-2-carboxamide] | 0.2
C[C@H]1CNC(=O)c2cc3ccc(C(=O)Nc4cnn(Cc5ccccc5)c4)nc3n21 [Example 60, (9S)-N-(1-benzyl-1H-pyrazol-4-yl)-9-methyl-6-oxo-6,7,8,9-tetrahydropyrido[3′,2′:4,5]pyrrolo[1,2-a]pyrazine-2-carboxamide] | 12
CC(C)n1ncc2cc(NC(=O)c3ccc4cc5n(c4n3)[C@@H](C)CNC5=O)cnc21 [Example 63, (9S)-9-methyl-6-oxo-N-[1-(propan-2-yl)-1H-pyrazolo[3,4-b]pyridin-5-yl]-6,7,8,9-tetrahydropyrido[3′,2′:4,5]pyrrolo[1,2-a]pyrazine-2-carboxamide] | 84
C[C@@H]1CNC(=O)c2cc3ccc(C(=O)Nc4cnc5ccccc5c4)nc3n21 [Example 64, (9R)-9-methyl-6-oxo-N-(quinolin-3-yl)-6,7,8,9-tetrahydropyrido[3′,2′:4,5]pyrrolo[1,2-a]pyrazine-2-carboxamide] | 3
C[C@H]1CNC(=O)c2cc3ccc(C(=O)Nc4cnc5ccccc5c4)nc3n21 [Example 65, (9S)-9-methyl-6-oxo-N-(quinolin-3-yl)-6,7,8,9-tetrahydropyrido[3′,2′:4,5]pyrrolo[1,2-a]pyrazine-2-carboxamide] | 34
CC(C)n1ncc2cc(NC(=O)c3ccc4cc5n(c4n3)[C@H](C)CNC5=O)cnc21 [Example 66, (9R)-9-methyl-6-oxo-N-[1-(propan-2-yl)-1H-pyrazolo[3,4-b]pyridin-5-yl]-6,7,8,9-tetrahydropyrido[3′,2′:4,5]pyrrolo[1,2-a]pyrazine-2-carboxamide] | 4
O=C(Nc1nc2cc(Cl)ccc2[nH]1)c1ccc2cc3n(c2n1)CCCNC3=O [Example 67, N-(5-chloro-1H-benzimidazol-2-yl)-6-oxo-7,8,9,10-tetrahydro-6H-pyrido[3′,2′:4,5]pyrrolo[1,2-a][1,4]diazepine-2-carboxamide] | 6.1
CC1CCNC(=O)c2cc3ccc(C(=O)Nc4cnn(Cc5ccncc5)c4)nc3n21 (centres unmarked) [Example 68, 10-methyl-6-oxo-N-[1-(pyridin-4-ylmethyl)-1H-pyrazol-4-yl]-7,8,9,10-tetrahydro-6H-pyrido[3′,2′:4,5]pyrrolo[1,2-a][1,4]diazepine-2-carboxamide] | 0.27
CCn1c(NC(=O)c2ccc3cc4n(c3n2)C(C)CCNC4=O)nc2ccccc21 (centres unmarked) [Example 69, N-(1-ethyl-1H-benzimidazol-2-yl)-10-methyl-6-oxo-7,8,9,10-tetrahydro-6H-pyrido[3′,2′:4,5]pyrrolo[1,2-a][1,4]diazepine-2-carboxamide] | 15
CC1CCNC(=O)c2cc3ccc(C(=O)Nc4nc5ccccc5n4CCCN(C)C)nc3n21 (centres unmarked) [Example 70, N-{[3-(dimethylamino)propyl]-1H-benzimidazol-2-yl}-10-methyl-6-oxo-7,8,9,10-tetrahydro-6H-pyrido[3′,2′:4,5]pyrrolo[1,2-a][1,4]diazepine-2-carboxamide] | 27
CCn1c(NC(=O)c2ccc3cc4n(c3n2)[C@@H](C)CNC4=O)nc2ccccc21 [Example 71, (9S)-N-(1-ethyl-1H-benzimidazol-2-yl)-9-methyl-6-oxo-6,7,8,9-tetrahydropyrido[3′,2′:4,5]pyrrolo[1,2-a]pyrazine-2-carboxamide] | 54.5
